Data as given in patent publication US7056734B1, “Differentiation of non-insulin producing cells into insulin producing cells by GLP-1 or exendin-4 and uses thereof” (The United States of America as represented by the …, priority 1998, dated 2006).

What was measured:
22 month old Wistar rats = experiment: Intraperitoneal glucose tolerance test after 48 hrs subcutaneous GLP-1 infusion; assay type: in vivo, rat; conditions: […] for 48 hrs
Protocol: (§1) The rats were implanted with an Alzet micro-osmotic pump (Alza Corp., Palo Alto, Calif.) in the interscapular region for 48 hrs. […] Control animals received normal saline in their pumps and received their infusion for the same length of time.
Blood samples were obtained at 15, 30, 45, 60, and 90 min in order to estimate glucose and insulin levels. Blood (200 μl) was drawn into heparinized tubes containing EDTA for glucose and insulin determination.
(§2) Assays. Plasma glucose was measured by the glucose oxidase method (Egan et al., 1991). […] The amount of cellular proteins was measured using the Bradford method (Bio-Rad Richmond, Calif.) using bovine γ-globulin as standard.

[1] = Protocol: as §1, §2
AR42J cells = experiment: Immunoreactive insulin release from treated AR42J cells (RIA); assay type: cell-based, rat
Protocol: Measurement of immunoreactive insulin. AR42J cells were cultured as before in 12-well cluster plates. When cells reached 60% confluence, they were treated with GLP-1 for 3 days. At the beginning of the experiments, an aliquot of the medium was taken in order to assay the insulin accumulation in the medium. Then the cells were twice washed with Kreb's Ringer Balanced Buffer (KRBB) and incubated in the same buffer containing 10 mM glucose for another 1 h. The medium was collected and kept at −20° C. until insulin levels were assayed by RIA (See Example 1; Wang et al., Endocrinology, 1995). The cells were washed with PBS and detached with 0.25% typsin and 0.02% EDTA. The cell pellet was collected and lysed with formic acid for protein determination by the Bradford method (Bradford, 1976), using bovine-globulin as standard.

glucokinase mRNA = experiment: Slot-blot quantitation of glucokinase mRNA in pancreata and islets; assay type: in vivo, rat; conditions: young (P<0.05), much more so in old animals (P<0.001)
Text: as §1
After an overnight fast, animals were sacrificed, pancreata were removed and frozen in liquid nitrogen as quickly as possible. RNA was extracted by homogenization in guanidinium isothiocyanate, followed by ultracentrifugation on a 5.7 M cesium chloride cushion (Glisin et al., 1974; Chigwin et al., 1979). Poly-A RNA was then prepared from total RNA by affinity chromatography using oligo (dT) columns (Biolabs INC, Beverly, Mass.). RNA was quantified by spectrophotometric analysis at […]. Slot-blot analysis using poly-A RNA was used for quantitation of mRNA levels of glucokinase, which is the main glucose sensor of the beta cell (Matschinsky, 1990), the three hexokinases, GLUT2, the major glucose transporter of the beta cell (Mueckler, 1990), and insulin. Four micrograms of poly-A RNA were diluted in 50 μl TE buffer (Tris-HCL 10 mM, EDTA 1 mM, pH 7.4), 20 μl of 37% formaldehyde and 20 μl of 10× SSC. Samples were incubated at 60° C. for 15 min and then diluted with 1 ml of ice-cold 10× SSC (1×SCC=0.15 M NaCl+0.015 sodium citrate). […]

non-diabetic mice = experiment: Daily ip exendin-4 in non-diabetic littermates; assay type: in vivo, mouse
Text: Animals. Four month old Wistar rats from the Wistar colony in the NIA (Baltimore, Md.) were used for the acute experiments of the effects of exendin-4 and GLP-1 (see Example 1). They had been maintained on standard lab chow and fed ad libitum. For the long-term experiments, diabetic mice (C57BLKS/J-Lepr^db/Lepr^db) lacking the leptin receptor, and their non-diabetic littermates were purchased at 4 weeks of age from Jackson Laboratories (Bar Harbor, Me.). They were housed two per cage and also were fed ad libitum. The same mice were caged together for the duration of the study. Wistar rats are caged on wire while the bedding for the mice was a paper based product, “Carefresh” (Absorption Co., Bellingham, Wash.).
Eleven diabetic and 10 non-diabetic animals received […] exendin-4 ip daily thereafter (7–9 am) while 10 diabetic and 10 non-diabetic animals received ip NaCl. Subsequently, whole blood glucose levels, taken from a retro-orbital sinus, were determined in the mice using a Glucometer Elite (Bayer). This regimen was continued for 12–13 weeks. […] Animals were weighed weekly. After one week of the regimen blood samples were again taken from a retro-orbital sinus for determination of insulin and glucose levels. At the end of the regimen, fasting blood samples were obtained for glucose and insulin levels and whole blood containing EDTA was assayed for hemoglobin A1c (Hb A1c) on the same day from the four groups.
Assays. Plasma glucose was measured by the glucose oxidase method (Wang et al., 1997). Insulin was measured by RIA as previously described (See Example 1). Hb A1c was assayed using a BIO-RAD (Herculas Calif.) DiaSTAT machine which uses low pressure cation exchange chromatography in conjunction with gradient elution to separate hemoglobin subtypes and variants from hemolyzed blood. The separated hemoglobin fractions were monitored by means of absorption of light at 415 nm.

Biological half-life = assay type: in vivo; conditions: compared with several minutes for GLP-1

Molecule	blood glucose during glucose tolerance test (22 month old Wistar rats; 15 min after 1 g/kg ip glucose, control 11.61±0.23)	blood glucose during glucose tolerance test (22 month old Wistar rats; 30 min after 1 g/kg ip glucose, control 10.36±0.43)	plasma GLP-1 before commencement of glucose tolerance testing ([1]; 120 min after removal of pumps)	plasma GLP-1 levels relative to fasting levels ([1]; during infusion, fasting levels 10–20 pmol/l)	insulin in cell culture medium (AR42J cells; 1 nM GLP-1 for 3 days, 60–72 h time period, mean±SD of 3 cultures)	glucose-induced insulin in buffer (AR42J cells; 3 days of GLP-1, then KRBB with 10 mM glucose for 1 h, control cells zero)	glucokinase mRNA levels (glucokinase mRNA)	trends in glucose and insulin (non-diabetic mice; 12–13 weeks)	Hb A1c (non-diabetic mice; 12–13 weeks, p=0.0002)	fasting glucose level after one week of treatment (non-diabetic mice; NaCl-treated 135±5, p<0.05)	deaths just after receiving exendin-4 (non-diabetic mice; day eight)	half-life (Biological half-life)
CC[C@H](C)[C@H](NC(=O)[C@H](Cc1ccccc1)NC(=O)[C@H](CCC(=O)O)NC(=O)[C@H](CCCCN)NC(=O)[C@H](C)NC(=O)[C@H](C)NC(=O)[C@H](CCC(N)=O)NC(=O)CNC(=O)[C@H](CCC(=O)O)NC(=O)[C@H](CC(C)C)NC(=O)[C@H](Cc1ccc(O)cc1)NC(=O)[C@H](CO)NC(=O)[C@H](CO)NC(=O)[C@@H](NC(=O)[C@H](CC(=O)O)NC(=O)[C@H](CO)NC(=O)[C@@H](NC(=O)[C@H](Cc1ccccc1)NC(=O)[C@@H](NC(=O)CNC(=O)[C@H](CCC(=O)O)NC(=O)[C@H](C)NC(=O)[C@@H](N)Cc1c[nH]cn1)[C@@H](C)O)[C@@H](C)O)C(C)C)C(=O)N[C@@H](C)C(=O)N[C@@H](Cc1c[nH]c2ccccc12)C(=O)N[C@@H](CC(C)C)C(=O)N[C@H](C(=O)N[C@@H](CCCCN)C(=O)NCC(=O)N[C@@H](CCCNC(=N)N)C(N)=O)C(C)C [GLP-1]	9.04 ± 0.92 mmol/L	8.61 ± 0.39 mmol/L	below the level of detectability	approximately 6 times	5.1±0.4 pg insulin/μg protein	0.65±0.15 pg insulin/μg protein	significantly increased	–	–	–	–	–
exendin-4	–	–	–	–	–	–	–	the same in the non-diabetic animals with exendin-4 treatment though not as dramatic	3.5%	70 ± 25 mg/dL	two of the non-diabetic mice	on the order of hours
